According to ChEMBL document CHEMBL1158607, “2' biaryl amides as novel and subtype selective M1 agonists. Part I: Identification, synthesis, and initial SAR” (Bioorg Med Chem Lett, 2010):
pEC50, pIC50: −log10 of the molar value. The source made the active and inactive calls. No cut-off for these calls is given here.

Columns and labels:
[1] = biological target: T1, Muscarinic acetylcholine receptor M2 (Homo sapiens, UniProt P08172); experiment: Inhibition of human muscarinic M2 receptor expressed in CHO cells; assay type: cell-based
T1 sequence (P08172 whole entry): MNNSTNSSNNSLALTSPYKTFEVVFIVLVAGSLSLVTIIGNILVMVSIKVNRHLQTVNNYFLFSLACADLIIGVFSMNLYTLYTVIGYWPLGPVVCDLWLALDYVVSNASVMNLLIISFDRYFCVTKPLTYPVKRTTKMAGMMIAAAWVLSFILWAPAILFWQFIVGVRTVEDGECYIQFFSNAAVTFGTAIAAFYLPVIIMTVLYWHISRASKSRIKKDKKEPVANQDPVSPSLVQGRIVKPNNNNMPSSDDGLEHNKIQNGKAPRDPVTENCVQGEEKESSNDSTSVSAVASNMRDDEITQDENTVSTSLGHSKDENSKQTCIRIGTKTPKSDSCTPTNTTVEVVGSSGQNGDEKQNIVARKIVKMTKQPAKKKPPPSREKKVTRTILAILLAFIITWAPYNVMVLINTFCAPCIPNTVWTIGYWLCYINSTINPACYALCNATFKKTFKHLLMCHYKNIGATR

[2] = species: Homo sapiens; experiment: Selectivity ratio of EC50 for human muscarinic M5 receptor to EC50 for human muscarinic M1 receptor
[3] = biological target: T2, Muscarinic acetylcholine receptor M3 (Homo sapiens, UniProt P20309); experiment: Agonist activity at human muscarinic M3 receptor expressed in CHO cells assessed as effect on acetylcholine-induced intracellular calcium level by FLIPR assay; assay type: functional, cell-based
Target sequence in this assay (P20309 whole entry, looked up): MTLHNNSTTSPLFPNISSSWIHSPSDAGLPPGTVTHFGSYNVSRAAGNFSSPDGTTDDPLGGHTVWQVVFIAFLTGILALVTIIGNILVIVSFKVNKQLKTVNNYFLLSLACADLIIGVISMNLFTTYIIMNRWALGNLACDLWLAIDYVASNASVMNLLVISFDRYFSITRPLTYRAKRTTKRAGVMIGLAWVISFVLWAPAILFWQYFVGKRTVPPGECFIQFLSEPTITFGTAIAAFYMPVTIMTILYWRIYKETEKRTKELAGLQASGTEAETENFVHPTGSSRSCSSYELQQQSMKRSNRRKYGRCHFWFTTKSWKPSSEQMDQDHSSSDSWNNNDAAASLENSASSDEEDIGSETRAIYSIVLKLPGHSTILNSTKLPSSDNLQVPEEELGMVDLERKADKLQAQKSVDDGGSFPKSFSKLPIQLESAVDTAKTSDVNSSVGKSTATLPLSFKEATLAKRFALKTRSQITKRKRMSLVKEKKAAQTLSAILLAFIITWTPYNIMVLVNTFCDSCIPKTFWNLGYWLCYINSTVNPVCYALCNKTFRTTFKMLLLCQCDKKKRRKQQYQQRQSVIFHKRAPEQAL

[4] = species: Homo sapiens; experiment: Selectivity ratio of EC50 for human muscarinic M4 receptor to EC50 for human muscarinic M1 receptor
[5] = biological target: T3, Muscarinic acetylcholine receptor M1 (Homo sapiens) (UniProt P11229); experiment: Intrinsic activity at human muscarinic M1 receptor expressed in CHO cells assessed as effect on acetylcholine-induced intracellular calcium level by FLIPR assay relative to acetylcholine; assay type: functional, cell-based
T3 sequence (whole entry): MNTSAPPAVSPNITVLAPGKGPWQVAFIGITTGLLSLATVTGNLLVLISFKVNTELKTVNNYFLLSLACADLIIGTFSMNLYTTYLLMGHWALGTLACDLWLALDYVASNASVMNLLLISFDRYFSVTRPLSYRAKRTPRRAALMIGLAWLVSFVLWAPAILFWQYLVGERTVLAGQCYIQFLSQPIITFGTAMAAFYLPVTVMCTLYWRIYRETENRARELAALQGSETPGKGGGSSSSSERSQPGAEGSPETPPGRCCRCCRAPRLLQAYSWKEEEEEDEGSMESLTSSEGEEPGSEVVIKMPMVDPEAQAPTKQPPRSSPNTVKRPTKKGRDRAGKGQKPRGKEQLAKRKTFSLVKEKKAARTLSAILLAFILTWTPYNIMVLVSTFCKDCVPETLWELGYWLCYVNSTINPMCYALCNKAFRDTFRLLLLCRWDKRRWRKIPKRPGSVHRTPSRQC

[6] = biological target: T4, Muscarinic acetylcholine receptor M5 (Homo sapiens, UniProt P08912); experiment: Inhibition of human muscarinic M5 receptor expressed in CHO cells; assay type: cell-based
T4 sequence (P08912 whole entry): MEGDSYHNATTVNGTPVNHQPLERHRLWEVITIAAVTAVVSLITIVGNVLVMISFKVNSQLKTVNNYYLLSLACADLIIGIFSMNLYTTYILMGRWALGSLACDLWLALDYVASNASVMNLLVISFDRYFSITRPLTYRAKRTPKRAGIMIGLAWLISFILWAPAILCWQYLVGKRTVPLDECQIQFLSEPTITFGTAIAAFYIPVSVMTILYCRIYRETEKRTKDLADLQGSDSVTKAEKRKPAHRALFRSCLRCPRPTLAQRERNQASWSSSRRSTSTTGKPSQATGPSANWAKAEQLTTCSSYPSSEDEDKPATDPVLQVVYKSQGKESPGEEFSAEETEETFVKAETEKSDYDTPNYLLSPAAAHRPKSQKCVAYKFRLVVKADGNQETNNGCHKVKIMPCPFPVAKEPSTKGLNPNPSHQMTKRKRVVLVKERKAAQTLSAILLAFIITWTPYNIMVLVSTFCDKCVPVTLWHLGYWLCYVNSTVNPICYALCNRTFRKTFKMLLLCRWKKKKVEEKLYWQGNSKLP

[7] = biological target: Muscarinic acetylcholine receptor M1 and M3 (Homo sapiens) (UniProt P20309+P11229); experiment: Selectivity ratio of EC50 for human muscarinic M3 receptor to EC50 for human muscarinic M1 receptor
[8] = biological target: Muscarinic acetylcholine receptors; M1 & M2 (Homo sapiens) (UniProt P11229+P08172); experiment: Selectivity ratio of EC50 for human muscarinic M2 receptor to EC50 for human muscarinic M1 receptor
[9] = biological target: T5, Muscarinic acetylcholine receptor M2 (Homo sapiens) (UniProt P08172); experiment: Agonist activity at human muscarinic M2 receptor expressed in CHO cells assessed as effect on acetylcholine-induced intracellular calcium level by FLIPR assay; assay type: functional, cell-based
T5 sequence (whole entry): T1 sequence (P08172 whole entry)

[10] = biological target: T6, Muscarinic acetylcholine receptor M5 (Homo sapiens) (UniProt P08912); experiment: Agonist activity at human muscarinic M5 receptor expressed in CHO cells assessed as effect on acetylcholine-induced intracellular calcium level by FLIPR assay; assay type: functional, cell-based
T6 sequence (whole entry): T4 sequence (P08912 whole entry)

[11] = biological target: T2, Muscarinic acetylcholine receptor M3; experiment: Inhibition of human muscarinic M3 receptor expressed in CHO cells; assay type: cell-based
Target sequence in this assay (P20309 whole entry): as the sequence (P20309 whole entry, looked up) above

[12] = biological target: T7, Muscarinic acetylcholine receptor M4 (Homo sapiens) (UniProt P08173); experiment: Agonist activity at human muscarinic M4 receptor expressed in CHO cells assessed as effect on acetylcholine-induced intracellular calcium level by FLIPR assay; assay type: functional, cell-based
T7 sequence (whole entry): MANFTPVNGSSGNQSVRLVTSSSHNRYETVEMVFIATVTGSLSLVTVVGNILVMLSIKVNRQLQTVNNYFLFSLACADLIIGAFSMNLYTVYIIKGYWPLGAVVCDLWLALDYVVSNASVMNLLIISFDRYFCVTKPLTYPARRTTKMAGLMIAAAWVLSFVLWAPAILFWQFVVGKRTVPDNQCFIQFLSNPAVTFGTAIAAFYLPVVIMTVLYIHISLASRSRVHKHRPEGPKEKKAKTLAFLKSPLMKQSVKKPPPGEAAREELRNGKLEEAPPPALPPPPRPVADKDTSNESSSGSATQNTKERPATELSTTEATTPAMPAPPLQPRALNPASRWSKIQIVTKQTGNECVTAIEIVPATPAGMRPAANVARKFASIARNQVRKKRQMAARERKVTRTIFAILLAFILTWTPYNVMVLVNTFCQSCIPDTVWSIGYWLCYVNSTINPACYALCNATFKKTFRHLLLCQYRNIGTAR

[13] = biological target: T8, Muscarinic acetylcholine receptor M1 (Homo sapiens, UniProt P11229); experiment: Agonist activity at human muscarinic M1 receptor expressed in CHO cells assessed as effect on acetylcholine-induced intracellular calcium level by FLIPR assay; assay type: functional, cell-based
T8 sequence (P11229 whole entry): T3 sequence (whole entry)

[14] = biological target: T9, Muscarinic acetylcholine receptor M4 (Homo sapiens, UniProt P08173); experiment: Inhibition of human muscarinic M4 receptor expressed in CHO cells; assay type: cell-based
T9 sequence (P08173 whole entry): T7 sequence (whole entry)

Muscarinic acetylcholine receptor M1 and M3 (Homo sapiens), sequence (P20309 whole entry, looked up, one chain of several): as the sequence (P20309 whole entry, looked up) above

pIC50 [1]	Ratio EC50 [2]	Activity [3]	Ratio EC50 [4]	Intrinsic activity [5] [%]	pIC50 [6]	Ratio EC50 [7]	Ratio EC50 [8]	Activity [9]	Activity [10]	pIC50 [11]	Activity [12]	pEC50 [13]	pIC50 [14]	Structure (SMILES)
5.40	100	inactive	100	99	< 5.00	100	100	inactive	inactive	5.90	inactive	7.70	5.50	CC1CNCCC1CNC(=O)c1ccccc1-c1cccc(Cl)c1 (centres undefined)
5.10	–	inactive	–	86	< 5.00	–	–	inactive	inactive	5.40	inactive	7.20	5.30	O=C(NCC1CCNCC1)c1ccccc1-c1cccc(Cl)c1
5.70	100	–	100	111	5.30	100	100	–	–	6.00	–	8.00	5.80	O=C(NCC1CCNCC1)c1ccccc1-c1cc(Cl)ccc1F
–	–	inactive	–	84	–	–	–	inactive	inactive	–	inactive	–	–	O=C(NCC1CCNCC1)c1ccccc1-c1nc(Cl)cs1
6.40	–	inactive	–	91	6.10	–	–	inactive	inactive	6.60	inactive	7.90	6.40	Cc1ccc(-c2ccccc2C(=O)NCC2CCNCC2)cc1Cl
